Consider 103 compounds from the SangsterLogP compilation.

Molecules are shown by their SMILES.

One may read the logP as a log measure of how a compound divides between an organic and an aqueous phase. Read a low logP as lower lipophilicity.

`COc1cccc(OC)c1C=NN=c1ccn(-c2c(Cl)cccc2Cl)cc1` returned a logP of 3.4.

With `C(Cc1ccccc1)=NN=c1ccn(CCCc2ccccc2)cc1`, the logP amounted to 3.9. Compound `Cc1cccc(C)c1C=NN=c1ccn(CCCCc2ccccc2)cc1` displayed a logP of 3.3.

In turn, `Fc1ccc(Cn2ccc(=NN=Cc3ccc(Cl)cc3)cc2)cc1` showed a logP of 3.8. Compound `Clc1ccccc1C=NN=c1ccn(CCc2ccccc2)cc1` yielded a logP of 3.9. Regarding `Brc1ccc(C=NN=c2ccn(Cc3ccccc3)cc2)cc1`, the logP was 3.9.

Compound `C(=NN=c1ccn(CCCc2ccccc2)cc1)c1ccc2ccccc2c1` had a lipophilicity (logP) of 4.3. The compound `Fc1ccc(Cn2ccc(=NN=CCCc3ccccc3)cc2)cc1` displayed a lipophilicity (logP) of 3.9. Turning to `C(=NN=c1ccn(Cc2ccccc2)cc1)c1ccc2ccccc2c1`, the logP stood at 4.2. As for `Brc1ccc(C=NN=c2ccn(CCCCc3ccccc3)cc2)cc1`, the figure is 3.9. As for `Clc1ccc(C=NN=c2ccn(Cc3ccccc3)cc2)cc1`, the lipophilicity (logP) was determined as 3.8. In turn, `Cc1ccc(C=NN=c2ccn(Cc3ccccc3)cc2)cc1` had a lipophilicity (logP) of 3.9. With `C(=NN=c1ccn(Cc2ccccc2)cc1)c1c2ccccc2cc2ccccc12`, the lipophilicity (logP) was 4.3. Regarding `COc1ccccc1C=NN=c1ccn(Cc2ccc3ccccc3c2)cc1`, the logP was determined as 3.4.

Consider `Clc1cccc(Cl)c1C=NN=c1ccn(CCCCCc2ccccc2)cc1`, for which the logP came to 4. In the case of `C(Cc1ccccc1)=NN=c1ccn(Cc2ccccc2)cc1`, the logP stood at 3.9. Regarding `Cc1ccc(C=NN=c2ccn(CCCN3C(=O)c4ccccc4C3=O)cc2)cc1`, the log partition coefficient (logP) stood at 3.6.

For the compound `C(=NN=c1ccn(CCCCCc2ccccc2)cc1)c1cccc2ccccc12`, the lipophilicity (logP) amounted to 4.4. On to `C(=NN=c1ccn(Cc2ccc3ccccc3c2)cc1)c1cccc2ccccc12`, for which the log partition coefficient (logP) came to 4.4. Take `Cc1ccc(C=NN=c2ccn(Cc3ccc4ccccc4c3)cc2)cc1`: the logP came to 4. As for `Brc1ccc(C=NN=c2ccn(CCCCCc3ccccc3)cc2)cc1`, the figure is 4; as for `COc1ccccc1C=NN=c1ccn(Cc2c(Cl)cccc2Cl)cc1`, 3.4. As to `COc1ccc(C=NN=c2ccn(CC=Cc3ccccc3)cc2)cc1`, the logP came to 3.4.

Take `COc1ccc(C=NN=c2ccn(Cc3ccccc3)cc2)cc1`: the lipophilicity (logP) was 3.3. Compound `COc1cccc(OC)c1C=NN=c1ccn(CCCCCc2ccccc2)cc1` had a logP of 3.5.

In turn, `Clc1cccc(Cl)c1C=NN=c1ccn(Cc2ccccc2)cc1` gave a lipophilicity (logP) of 3.9. `Clc1cccc(Cl)c1C=NN=c1ccn(Cc2c(Cl)cccc2Cl)cc1` had a logP of 4.

The compound `Cc1cccc(C)c1C=NN=c1ccn(Cc2ccccc2)cc1` had a logP of 4. `Fc1ccc(C=NN=c2ccn(CCCc3ccccc3)cc2)cc1` yielded a logP of 3.8. As for `O=[N+]([O-])c1ccc(C=NN=c2ccn(CCCc3ccccc3)cc2)cc1`, the figure is 3.8. On to `Oc1ccccc1C=NN=c1ccn(CCCc2ccccc2)cc1`, for which the log partition coefficient (logP) amounted to 3.3.

Take `Cc1cccc(C)c1C=NN=c1ccn(CCCc2ccccc2)cc1`: the log partition coefficient (logP) was found to be 3.3. With `C(CCc1ccccc1)=NN=c1ccn(CCCc2ccccc2)cc1`, the logP is 4. As for `O=[N+]([O-])c1ccc(C=NN=c2ccn(CC=Cc3ccccc3)cc2)cc1`, the figure is 3.8; as for `C(=NN=c1ccn(CCCCc2ccccc2)cc1)c1cccc2ccccc12`, 4.3. In turn, `Cc1ccccc1C=NN=c1ccn(Cc2c(Cl)cccc2Cl)cc1` returned a logP of 3.9.

As for `C(=NN=c1ccn(CCCCCc2ccccc2)cc1)c1c2ccccc2cc2ccccc12`, the log partition coefficient (logP) was 4.4.

`O=[N+]([O-])c1ccc(C=NN=c2ccn(CCCCCc3ccccc3)cc2)cc1` registered a log partition coefficient (logP) of 4. Consider `Clc1ccccc1C=NN=c1ccn(CCCc2ccccc2)cc1`, for which the logP is 3.9. Regarding `Clc1ccc(C=NN=c2ccn(Cc3ccccc3Br)cc2)cc1`, the log partition coefficient (logP) is 3.9. For `COc1ccc(C=NN=c2ccn(CCCc3ccccc3)cc2)cc1`, the logP is 3.4.

`Fc1cccc(C=NN=c2ccn(Cc3ccccc3)cc2)c1` gave a logP of 3.7. For the compound `COc1ccc(C=NN=c2ccn(Cc3c(Cl)cccc3Cl)cc2)cc1`, the logP was determined as 3.4. `Fc1cccc(C=NN=c2ccn(Cc3ccccc3Br)cc2)c1` registered a log partition coefficient (logP) of 3.9.

Consider `O=[N+]([O-])c1ccc(C=NN=c2ccn(Cc3ccccc3)cc2)cc1`, for which the logP is 3.8. For `Cc1ccccc1C=NN=c1ccn(Cc2ccccc2)cc1`, the lipophilicity (logP) came out at 3.9. As for `Clc1ccc(C=NN=c2ccn(CC=Cc3ccccc3)cc2)cc1`, the figure is 3.9; as for `Cc1ccc(C=NN=c2ccn(Cc3c(Cl)cccc3Cl)cc2)cc1`, 3.9.

In the case of `C(=NN=c1ccn(CCCCc2ccccc2)cc1)c1c2ccccc2cc2ccccc12`, the logP is 4.4. `Cc1cccc(C)c1C=NN=c1ccn(CCc2ccccc2)cc1` returned a lipophilicity (logP) of 3.3. On to `C(=NN=c1ccn(CCCc2ccccc2)cc1)c1c2ccccc2cc2ccccc12`, for which the lipophilicity (logP) amounted to 4.4. `Clc1cccc(Cl)c1C=NN=c1ccn(CCCCc2ccccc2)cc1`: the logP came to 4. For `Cc1ccccc1C=NN=c1ccn(CCCc2ccccc2)cc1` the value was 4; for `COc1ccc(C=NN=c2ccn(CCCCCc3ccccc3)cc2)cc1`, 3.5; for `Clc1cccc(Cl)c1Cn1ccc(=NN=Cc2c3ccccc3cc3ccccc23)cc1`, 4.4. For `Oc1ccccc1C=NN=c1ccn(Cc2ccccc2)cc1` the value was 3.2; for `Clc1ccccc1C=NN=c1ccn(Cc2ccccc2)cc1`, 3.8. `Clc1ccc(C=NN=c2ccn(CCCc3ccccc3)cc2)cc1` registered a logP of 3.9. As to `COc1cccc(OC)c1C=NN=c1ccn(CCCCc2ccccc2)cc1`, the logP is 3.4. In turn, `Brc1ccc(C=NN=c2ccn(CCCc3ccccc3)cc2)cc1` yielded a logP of 3.9. `O=[N+]([O-])c1ccc(C=NN=c2ccn(CCc3ccccc3)cc2)cc1` yielded a logP of 3.9. For the compound `C(=NN=c1ccn(CCCc2ccccc2)cc1)c1cccc2ccccc12`, the logP came to 4.3.

On to `Cc1ccc(C=NN=c2ccn(CCCCCc3ccccc3)cc2)cc1`, for which the log partition coefficient (logP) stood at 4.1. The compound `COc1ccccc1C=NN=c1ccn(Cc2ccccc2)cc1` returned a logP of 3.3. For `Cc1cccc(C=NN=c2ccn(CCCc3ccccc3)cc2)c1` the value was 4. `Fc1ccc(C=NN=c2ccn(Cc3ccccc3)cc2)cc1`: the log partition coefficient (logP) is 3.7. In the case of `Oc1ccccc1C=NN=c1ccn(Cc2c(Cl)cccc2Cl)cc1`, the logP was determined as 3.3. `COc1cccc(OC)c1C=NN=c1ccn(Cc2ccccc2)cc1` gave a logP of 3.3. For `Fc1cccc(C=NN=c2ccn(CCCc3ccccc3)cc2)c1`, the logP came out at 3.8. In turn, `Cc1ccc(C=NN=c2ccn(CCCCc3ccccc3)cc2)cc1` came in with a log partition coefficient (logP) of 4. `O=C1c2ccccc2C(=O)N1CCCn1ccc(=NN=Cc2ccc3ccccc3c2)cc1`: the lipophilicity (logP) came to 4.1. For the compound `Cc1ccc(C=NN=c2ccn(CCCc3ccccc3)cc2)cc1`, the log partition coefficient (logP) came to 4. With `COc1ccccc1C=NN=c1ccn(CCCc2ccccc2)cc1`, the log partition coefficient (logP) was found to be 3.4. On to `C(=NN=c1ccn(CCc2ccccc2)cc1)c1cccc2ccccc12`, for which the logP was found to be 4.3. `Cc1cccc(C)c1C=NN=c1ccn(Cc2c(Cl)cccc2Cl)cc1` had a logP of 3.3.

As to `COc1ccccc1C=NN=c1ccn(CCc2ccccc2)cc1`, the logP stood at 3.4.

Regarding `C(=NN=c1ccn(Cc2ccccc2)cc1)c1cccc2ccccc12`, the logP came out at 4.2. For `Fc1cc(Br)ccc1Cn1ccc(=NN=CCCc2ccccc2)cc1`, the logP worked out at 3.9.

As to `COc1ccc(C=NN=c2ccn(CCc3ccccc3)cc2)cc1`, the lipophilicity (logP) worked out at 3.4. On to `Clc1cccc(Cl)c1Cn1ccc(=NN=Cc2cccc3ccccc23)cc1`, for which the lipophilicity (logP) was 4.3. As to `Clc1ccc(C=NN=c2ccn(Cc3ccccc3I)cc2)cc1`, the logP is 3.9. The compound `C(CCc1ccccc1)=NN=c1ccn(Cc2ccccc2)cc1` came in with a logP of 4.

As to `Fc1ccc(Br)cc1Cn1ccc(=NN=Cc2ccc(Cl)cc2)cc1`, the log partition coefficient (logP) is 4. As for `Clc1cccc(Cl)c1Cn1ccc(=NN=Cc2ccc(Br)cc2)cc1`, the logP was determined as 3.9.

On to `Cc1ccc(C=NN=c2ccn(CC=Cc3ccccc3)cc2)cc1`, for which the logP stood at 4. The compound `O=[N+]([O-])c1ccc(C=NN=c2ccn(Cc3c(Cl)cccc3Cl)cc2)cc1` yielded a lipophilicity (logP) of 4. For `O=[N+]([O-])c1ccc(C=NN=c2ccn(CCCCc3ccccc3)cc2)cc1`, the log partition coefficient (logP) amounted to 3.9. In the case of `COc1ccc(C=NN=c2ccn(CCCCc3ccccc3)cc2)cc1`, the logP worked out at 3.4. In turn, `C(=NN=c1ccn(CCc2ccccc2)cc1)c1c2ccccc2cc2ccccc12` gave a logP of 4.4. Compound `Cc1cccc(C)c1C=NN=c1ccn(CCCCCc2ccccc2)cc1` gave a log partition coefficient (logP) of 3.4. As for `Cc1cccc(C=NN=c2ccn(CCCN3C(=O)c4ccccc4C3=O)cc2)c1`, the figure is 3.8; as for `Cc1ccc(C)c(-n2ccc(=NN=Cc3ccc(Cl)cc3)cc2)c1`, 4; as for `COc1ccccc1C=NN=c1ccn(CC=Cc2ccccc2)cc1`, 3.5. `COc1ccc(C=NN=c2ccn(CCCCCN3C(=O)c4ccccc4C3=O)cc2)cc1` gave a logP of 3.4.

In turn, `Cc1cccc(Cn2ccc(=NN=CCCc3ccccc3)cc2)c1C` yielded a log partition coefficient (logP) of 3.9. `Clc1cccc(Cl)c1C=NN=c1ccn(CCc2ccccc2)cc1` came in with a logP of 4.

`COc1cccc(OC)c1C=NN=c1ccn(CCc2ccccc2)cc1` yielded a logP of 3.4. Compound `Cc1ccc(C=NN=c2ccn(CCc3ccccc3)cc2)cc1` had a log partition coefficient (logP) of 4. Turning to `Brc1ccccc1Cn1ccc(=NN=CCCc2ccccc2)cc1`, the logP was determined as 3.9.

Compound `Oc1ccccc1C=NN=c1ccn(CCc2ccccc2)cc1` displayed a log partition coefficient (logP) of 3.3.

Take `CCCCCCn1ccc(=NN=Cc2ccc(C)cc2)cc1`: the log partition coefficient (logP) came out at 3.8.

In turn, `Clc1ccccc1C=NN=c1ccn(Cc2c(Cl)cccc2Cl)cc1` had a logP of 3.9. Compound `COc1cccc(OC)c1C=NN=c1ccn(CCCc2ccccc2)cc1` gave a logP of 3.4.
